Test results: patent publication US8796330B2, “Inhibitors of histone deacetylase and prodrugs thereof” (Methylgene Inc., priority 2006, dated 2014)

System: histone deacetylase in nuclear extracts from H446 cells (pooled HDACs)
Experiment: Inhibition of histone deacetylase in H446 nuclear extracts ([3H]-acetylated histone substrate)
Format: biochemical, human
Conditions: not given

| SMILES | pooled HDACs percent inhibition [% @ 20 μM] |
| --- | --- |
| O=C(NO)c1ccc(CCS(=O)(=O)c2ccccc2)cc1 [Compound 73, N-Hydroxy-4-(2-benzenesulfonyl)-ethyl benzamide] | 35 |

Same assay, conditions: H446 nuclear extract

| IC50 [µM] | SMILES |
| --- | --- |
| 7 | O=C(Cc1ccc(NS(=O)(=O)c2cc3ccccc3s2)cc1)NO [Compound 4] |
| 70 | O=C(Cc1ccc(NS(=O)(=O)c2ccccc2[N+](=O)[O-])cc1)NO [Compound 7, 2-[4-(2-nitrobenzenesulfonylamino)-phenyl]-N-hydroxy-acetamide] |
| 15 | O=C(Cc1ccc(NS(=O)(=O)c2cc(Cl)ccc2Cl)cc1)NO [Compound 8, 2-[4-(2,5-dichlorobenzenesulfonylamino)-phenyl]-N-hydroxy-acetamide] |
| 9 | Cc1ccc(S(=O)(=O)Nc2ccc(CC(=O)NO)cc2)cc1 [Compound 9, 2-[4-(4-methylbenzenesulfonylamino)-phenyl]-N-hydroxy-acetamide] |
| 30 | O=C(Cc1ccc(NS(=O)(=O)c2cccc(C(F)(F)F)c2)cc1)NO [Compound 10, 2-[4-(3-trifluoromethylbenzenesulfonylamino)-phenyl]-N-hydroxy acetamide] |
| 0.9 | O=C(NO)c1ccc(NS(=O)(=O)c2cc3ccccc3s2)cc1 [Compound 13] |
| 25 | O=C(Cc1ccc(NS(=O)(=O)c2ccc(Cl)c(Cl)c2)cc1)NO [Compound 15, 2-[4-(3,4-dichlorobenzenesulfonylamino)-phenyl]-N-hydroxy-acetamide] |
| 160 | O=C(Cc1ccc(NS(=O)(=O)c2cccc3cccnc23)cc1)NO [Compound 18, 2-[4-(8-quinolinesulfonylamino)-phenyl]-N-hydroxy-acetamide] |
| 20 | O=C(Cc1ccc(NS(=O)(=O)c2ccc(Br)cc2)cc1)NO [Compound 19, 2-[4-(4-bromobenzenesulfonylamino)-phenyl]-N-hydroxy-acetamide] |
| < 20 | O=C(CCCCc1cccc(NS(=O)(=O)c2ccccc2)c1)NO [Compound 26] |
| < 20 | O=C(/C=C/C#Cc1ccc(NS(=O)(=O)c2ccccc2)cc1)NO [Compound 32, N-Hydroxy-5-[4-(benzenesulfonylamino)-phenyl]-4-yn-2-pentanamide] |
| 4 | O=C(/C=C/c1ccc(C(=O)NO)cc1)c1ccccc1 [Compound 45, N-Hydroxy-4-(3-oxo-3-phenylpropenyl)-benzamide] |
| 5 | O=C(CCc1ccc(C(=O)NO)cc1)c1ccccc1 [Compound 50, N-Hydroxy-4-(3-oxo-3-phenylpropyl)-benzamide] |
| 25 | O=C(CC(O)c1ccc(C(=O)NO)cc1)c1ccccc1 (centres unmarked) [Compound 53, N-Hydroxy-4-(3-oxo-3-phenyl-1-hydroxypropyl)-benzamide] |
| 15 | O=C(NO)c1ccc(CCCc2ccccc2)cc1 [Compound 56, N-Hydroxy-4-(3-phenylpropyl)-benzamide] |
| 4 | O=C(NO)c1ccc(CCCCc2ccccc2)cc1 [Compound 61, N-Hydroxy-4-(4-phenylbutyl)-benzamide] |

Same assay, conditions: H446 nuclear extract; @ 20 μM

| SMILES | pooled HDACs percent inhibition [% @ 20 μM] |
| --- | --- |
| O=C(NO)c1cccc(CCc2ccccc2)c1 [Compound 68, N-Hydroxy-3-(2-phenylethyl)-benzamide] | 3 |
| O=C(NO)c1ccc(CC[S+]([O-])c2ccccc2)cc1 (centres unmarked) [Compound 71, N-Hydroxy-4-(2-benzenesulfoxide)-ethyl benzamide] | 44 |

Same assay, conditions: H446 nuclear extract; @ 100 μM

| SMILES | pooled HDACs percent inhibition |
| --- | --- |
| O=C(Cc1cccc(NS(=O)(=O)c2cc3ccccc3s2)c1)NO [Compound 14] | 36% @ 100 μM |
| O=C(Cc1ccc(NS(=O)(=O)c2cccs2)cc1)NO [Compound 16, 2-[4-(2-Thiophenesulfonylamino)-phenyl]-N-hydroxy-acetamide] | 38% 100 μM |
| O=C(Cc1ccc(NS(=O)(=O)c2cccc([N+](=O)[O-])c2)cc1)NO [Compound 17, 2-[4-(3-nitrobenzenesulfonylamino)-phenyl]-N-hydroxy-acetamide] | 47% 100 μM |
| O=C(NO)c1cccc(CCCc2ccccc2)c1 [Compound 64, N-Hydroxy-3-(3-phenylpropyl)-benzamide] | 12% @ 100 μM |
